ChEMBL document CHEMBL5052826, “Kif18a inhibitors” (2020)

What follows are compounds tested against T1, Kinesin-like protein KIF18A (Homo sapiens, UniProt Q8NI77) (assay: Inhibition of recombinant His-tagged human KIF18A (1 to 467 residues) expressed in baculovirus expression system assessed as inhibition of microtubule-stimulated ATPase activity preincubated for 15 mins followed by ATP addition and further incubated for 15 mins and measured after 40 mins by ADP-Glo reagent based assay).
T1 sequence (Q8NI77 whole entry): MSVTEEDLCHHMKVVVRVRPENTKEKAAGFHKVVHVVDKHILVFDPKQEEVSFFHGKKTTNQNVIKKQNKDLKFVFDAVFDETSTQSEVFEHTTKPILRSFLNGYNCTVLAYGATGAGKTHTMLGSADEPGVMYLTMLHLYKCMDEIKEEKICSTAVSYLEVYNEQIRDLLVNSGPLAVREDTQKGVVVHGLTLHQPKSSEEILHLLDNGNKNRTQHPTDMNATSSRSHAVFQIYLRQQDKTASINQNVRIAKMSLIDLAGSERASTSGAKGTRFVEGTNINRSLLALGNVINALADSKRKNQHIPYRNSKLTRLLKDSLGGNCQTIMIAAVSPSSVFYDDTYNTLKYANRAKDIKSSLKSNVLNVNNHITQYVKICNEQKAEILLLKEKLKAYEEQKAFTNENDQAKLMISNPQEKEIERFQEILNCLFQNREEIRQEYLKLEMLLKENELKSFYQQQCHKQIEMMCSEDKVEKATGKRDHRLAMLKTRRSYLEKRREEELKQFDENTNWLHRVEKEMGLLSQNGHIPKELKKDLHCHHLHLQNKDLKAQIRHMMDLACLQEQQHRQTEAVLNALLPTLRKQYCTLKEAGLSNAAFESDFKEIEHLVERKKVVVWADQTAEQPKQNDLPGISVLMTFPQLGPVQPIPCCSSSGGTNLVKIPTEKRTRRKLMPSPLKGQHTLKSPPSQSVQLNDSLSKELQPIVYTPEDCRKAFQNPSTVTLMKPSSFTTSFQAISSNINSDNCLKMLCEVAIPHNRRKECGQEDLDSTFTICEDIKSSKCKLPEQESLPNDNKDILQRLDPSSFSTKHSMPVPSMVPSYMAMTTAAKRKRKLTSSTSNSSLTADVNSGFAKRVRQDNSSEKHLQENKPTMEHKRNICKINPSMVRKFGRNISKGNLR

Row | IC50 | SMILES
1 | 151 nM | Cc1cc(NC(=O)c2ccc(NS(=O)(=O)C[C@H](C)O)cc2N2CCC3(CC2)CC3)nc(N2CCO[C@H](C)C2)n1
2 | 57 nM | Cc1cc(NC(=O)c2ccc(S(=O)(=O)[C@@H](C)CO)cc2N2CCC3(CC2)CC3)nc(N2CCC(F)(F)CC2)n1
3 | 64 nM | Cc1cc(NC(=O)c2ccc(S(=O)(=O)[C@H](C)CO)cc2N2CCC3(CC2)CC3)nc(N2CCC(F)(F)CC2)n1
4 | 186 nM | Cc1cc(NC(=O)c2ccc(S(C)(=O)=O)cc2N2CCC3(CC2)CC3)nc(NC(C)(C)CO)n1
